# Assays:
# [1] = target: T1, 5-hydroxytryptamine receptor 1A (Rattus norvegicus, UniProt P19327); type: cell membranes, CHO-K1, Membrane
# T1 sequence (P19327 whole entry): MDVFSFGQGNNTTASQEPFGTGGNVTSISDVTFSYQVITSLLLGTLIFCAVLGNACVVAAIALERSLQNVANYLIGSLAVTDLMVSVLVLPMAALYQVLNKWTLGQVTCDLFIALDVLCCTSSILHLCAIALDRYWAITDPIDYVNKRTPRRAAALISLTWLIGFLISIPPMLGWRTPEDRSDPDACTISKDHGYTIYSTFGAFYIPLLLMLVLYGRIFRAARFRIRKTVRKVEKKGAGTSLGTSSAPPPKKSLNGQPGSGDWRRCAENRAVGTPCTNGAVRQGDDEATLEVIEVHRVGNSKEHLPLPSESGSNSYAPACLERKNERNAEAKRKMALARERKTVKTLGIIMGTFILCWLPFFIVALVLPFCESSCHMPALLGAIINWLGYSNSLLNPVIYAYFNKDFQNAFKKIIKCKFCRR
# [2] = target: Glycine receptor (Rattus norvegicus, UniProt P22771+P24524+P07727+P20781); type: cell membranes, Wistar, Spinal cord, Membrane
# [3] = target: Prostaglandin G/H synthase 1 (Homo sapiens, UniProt P23219); assay: biochemical; type: tissue-based, Platelet;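 also: inhibition of COX-1 enzyme activity, with arachidonic acid supplied as substrate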
# [4] = target: Histamine H2 receptor (Homo sapiens, UniProt P25021); type: cell membranes, CHO-K1, Membrane
# [5] = target: Melanocortin receptor 3 (Homo sapiens, UniProt P41968); type: cell membranes, HEK293, Membrane
# Also: in other assays of this panel Not Active means under 50% inhibition at 10 µM.
# Histamine H2 receptor, sequence (P25021 whole entry): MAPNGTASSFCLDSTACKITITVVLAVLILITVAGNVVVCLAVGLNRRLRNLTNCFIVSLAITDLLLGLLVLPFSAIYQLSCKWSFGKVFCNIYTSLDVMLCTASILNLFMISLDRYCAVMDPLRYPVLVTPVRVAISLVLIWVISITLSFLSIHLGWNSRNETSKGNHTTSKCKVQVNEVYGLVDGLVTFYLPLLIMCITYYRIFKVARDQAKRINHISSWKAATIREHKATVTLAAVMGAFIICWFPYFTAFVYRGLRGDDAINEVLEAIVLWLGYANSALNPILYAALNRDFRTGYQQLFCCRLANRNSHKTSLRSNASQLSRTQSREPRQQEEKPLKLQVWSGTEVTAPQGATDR
# Melanocortin receptor 3, sequence (P41968 whole entry): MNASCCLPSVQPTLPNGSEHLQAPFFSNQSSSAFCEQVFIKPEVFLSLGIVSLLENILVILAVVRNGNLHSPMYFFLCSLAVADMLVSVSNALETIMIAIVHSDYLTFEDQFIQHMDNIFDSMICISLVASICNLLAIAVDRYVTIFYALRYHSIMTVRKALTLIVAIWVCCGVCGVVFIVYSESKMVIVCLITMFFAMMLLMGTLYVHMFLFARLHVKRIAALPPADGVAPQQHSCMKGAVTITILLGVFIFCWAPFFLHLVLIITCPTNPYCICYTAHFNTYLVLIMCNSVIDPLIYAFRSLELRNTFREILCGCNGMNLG
# Prostaglandin G/H synthase 1, sequence (P23219 whole entry): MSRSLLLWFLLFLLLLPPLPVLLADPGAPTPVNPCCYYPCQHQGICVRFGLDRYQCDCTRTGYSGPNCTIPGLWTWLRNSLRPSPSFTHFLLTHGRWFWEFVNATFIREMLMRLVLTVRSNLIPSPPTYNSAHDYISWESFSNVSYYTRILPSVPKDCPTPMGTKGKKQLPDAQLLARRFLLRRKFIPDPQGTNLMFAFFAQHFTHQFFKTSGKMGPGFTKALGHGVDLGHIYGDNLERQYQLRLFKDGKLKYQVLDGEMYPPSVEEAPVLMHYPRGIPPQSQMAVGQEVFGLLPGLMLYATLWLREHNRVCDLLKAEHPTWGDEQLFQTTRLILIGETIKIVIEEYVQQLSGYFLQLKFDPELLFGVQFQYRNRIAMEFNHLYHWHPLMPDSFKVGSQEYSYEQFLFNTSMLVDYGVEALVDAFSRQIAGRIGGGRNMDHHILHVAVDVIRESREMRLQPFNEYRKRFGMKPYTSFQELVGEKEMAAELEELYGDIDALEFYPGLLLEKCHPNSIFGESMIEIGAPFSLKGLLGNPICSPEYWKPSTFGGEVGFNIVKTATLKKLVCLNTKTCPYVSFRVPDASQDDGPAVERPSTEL
Compound,IC50 ([1]; cho-k1),IC50 [2],IC50 ([3]; platelet),IC50 ([4]; cho-k1),IC50 ([5]; hek293),other results
Cc1c(C)c2c(c(C)c1O)CCC(C)(CN1CCN(c3cc(N4CCCC4)nc(N4CCCC4)n3)CC1)O2 (configuration not stated),Not Active,Not Active,Not Active,Not Active,,IC50 ([5]; read-out: IC50): 17.3 µM; Ki ([5]; read-out: Ki): 15.1 µM
COc1ccc(CCN(C)CCCC(C#N)(c2ccc(OC)c(OC)c2)C(C)C)cc1OC (configuration not stated),,Not Active,Not Active,,Not Active,IC50 [1]: 3.02 µM; Ki ([1]; read-out: Ki): 1.73 µM
CC(C)Cc1ccc([C@@H](C)C(=O)O)cc1 [(R)-IBUPROPHEN],Not Active,Not Active,Not Active,Not Active,Not Active,
CN(C)CCOC(c1ccccc1)c1ccccc1 [DIPHENHYDRAMINE],Not Active,Not Active,Not Active,Not Active,Not Active,
Clc1ccc(COC(Cn2ccnc2)c2ccc(Cl)cc2Cl)cc1 (configuration not stated) [ECONAZOLE],,Not Active,Not Active,,,IC50 ([1]; read-out: IC50): 16.2 µM; Ki ([1]; read-out: Ki): 9.24 µM
CCN(CC)CCOc1ccc(/C(=C(/Cl)c2ccccc2)c2ccccc2)cc1 [ENCLOMIPHENE],Not Active,Not Active,,Not Active,Not Active,IC50 ([3]; read-out: IC50): 0.346 µM
Fc1ccc(C(c2ccc(F)cc2)N2CCN(C/C=C/c3ccccc3)CC2)cc1 [FLUNARIZINE],,Not Active,Not Active,Not Active,Not Active,IC50 ([1]; read-out: IC50): 4.28 µM; Ki ([1]; read-out: Ki): 2.45 µM
CNCCC(Oc1ccc(C(F)(F)F)cc1)c1ccccc1 (configuration not stated) [FLUOXETINE],Not Active,Not Active,Not Active,Not Active,Not Active,
Cc1ccc(NC(=O)c2ccc(CN3CCN(C)CC3)cc2)cc1Nc1nccc(-c2cccnc2)n1 [IMATINIB],Not Active,Not Active,Not Active,,Not Active,IC50 ([4]; read-out: IC50): 1.96 µM; Ki ([4]; read-out: Ki): 1.93 µM
CC(C)Oc1ccc2c(=O)c(-c3ccccc3)coc2c1 [IPRIFLAVONE],Not Active,Not Active,,Not Active,Not Active,
CC(C)NCC(O)c1ccc(O)c(O)c1 (configuration not stated) [ISOPROTERENOL],Not Active,Not Active,Not Active,Not Active,Not Active,
CNC1(c2ccccc2Cl)CCCCC1=O (configuration not stated) [KETAMINE],Not Active,Not Active,Not Active,Not Active,Not Active,
N#Cc1ccc(C(c2ccc(C#N)cc2)n2cncn2)cc1 [LETROZOLE],Not Active,Not Active,Not Active,Not Active,Not Active,
CCN1CCC[C@H]1CNC(=O)c1cc(S(N)(=O)=O)ccc1OC [LEVOSULPIRIDE],Not Active,Not Active,Not Active,Not Active,Not Active,
CCN(CC)CC(=O)Nc1c(C)cccc1C [LIDOCAINE],Not Active,Not Active,Not Active,Not Active,Not Active,
O=C1Nc2ccc(Cl)cc2C(c2ccccc2Cl)=NC1O (configuration not stated) [LORAZEPAM],Not Active,Not Active,Not Active,Not Active,Not Active,
CO[C@@H]1[C@@H](OC)[C@H](C)[C@@](O)(CC(=O)O)O[C@H]1[C@H](C)[C@H]1O[C@@]2(CC[C@@](C)([C@H]3CC[C@@](C)([C@@H]4O[C@@H]([C@H]5O[C@](C)(O)[C@H](C)C[C@@H]5C)C[C@@H]4O[C@@H]4C[C@H](OC)[C@@H](OC)[C@H](C)O4)O3)O2)C[C@H](O)[C@H]1C [MADURAMICIN ACID],,Not Active,Not Active,Not Active,Not Active,IC50 ([1]; read-out: IC50): 0.00783 µM; Ki ([1]; read-out: Ki): 0.00447 µM
COc1c2occc2cc2ccc(=O)oc12 [METHOXSALEN],Not Active,Not Active,Not Active,Not Active,Not Active,
C[C@H]1C[C@@H]2[C@H]([C@@H](O)C[C@@]3(C)[C@H]2CC[C@]3(O)C(=O)CO)[C@@]2(C)C=CC(=O)C=C12 [METHYLPREDNISOLONE],Not Active,Not Active,Not Active,Not Active,Not Active,
Cc1cccc(C)c1OCC(C)N (configuration not stated) [MEXILETINE],Not Active,Not Active,Not Active,Not Active,Not Active,
Nc1cc(N2CCCCC2)nc(N)[n+]1[O-] [MINOXIDIL],Not Active,Not Active,Not Active,Not Active,Not Active,

Compound,IC50 ([1]; cho-k1),IC50 [2],IC50 ([3]; platelet),IC50 ([4]; cho-k1),IC50 ([5]; hek293),other results
CO[C@H]1/C=C/O[C@@]2(C)Oc3c(C)c(O)c4c(O)c(c(/C=N/N5CCN(C6CCCC6)CC5)c(O)c4c3C2=O)NC(=O)/C(C)=C\C=C\[C@H](C)[C@H](O)[C@@H](C)[C@@H](O)[C@@H](C)[C@H](OC(C)=O)[C@@H]1C [RIFAPENTINE],Not Active,Not Active,Not Active,Not Active,Not Active,
CCCCOc1cc(CC2CNC(=O)N2)ccc1OC (configuration not stated) [RO-201724],Not Active,Not Active,Not Active,Not Active,Not Active,
CC[C@@H](C(=O)[C@@H](C)[C@@H](O)[C@H](C)[C@@H]1O[C@@H]([C@@H](CC)C(=O)O)CC[C@@H]1C)[C@H]1O[C@]2(C=C[C@@H](O)[C@]3(CC[C@@](C)([C@H]4CC[C@](O)(CC)[C@H](C)O4)O3)O2)[C@H](C)C[C@@H]1C [SALINOMYCIN],Not Active,Not Active,Not Active,Not Active,Not Active,
O=C(Oc1ccccc1C(=O)O)c1ccccc1O [SALSALATE],Not Active,Not Active,Not Active,Not Active,Not Active,
O=C(O)c1cn(-c2ccc(F)cc2)c2cc(N3CCNCC3)c(F)cc2c1=O [SARAFLOXACIN],Not Active,Not Active,Not Active,Not Active,Not Active,
CN[C@H]1CC[C@@H](c2ccc(Cl)c(Cl)c2)c2ccccc21 [SERTRALINE],Not Active,Not Active,Not Active,Not Active,Not Active,
CC(C)NCC(O)c1ccc(NS(C)(=O)=O)cc1 (configuration not stated) [SOTALOL],Not Active,Not Active,Not Active,Not Active,Not Active,
O.O.O.O.O.O.[Cl-].[Cl-].[Sr+2] [STRONTIUM CHLORIDE HEXAHYDRATE],Not Active,Not Active,Not Active,Not Active,Not Active,
O=C1C(CC[S+]([O-])c2ccccc2)C(=O)N(c2ccccc2)N1c1ccccc1 (configuration not stated) [SULFINPYRAZONE],Not Active,Not Active,Not Active,Not Active,Not Active,
NC(=O)N1C(=O)/C(=C(\O)c2cccs2)c2cc(Cl)ccc21 [TENIDAP],Not Active,Not Active,,Not Active,Not Active,IC50 ([3]; read-out: IC50): 0.055 µM
COc1cc2nc(N3CCN(C(=O)C4CCCO4)CC3)nc(N)c2cc1OC (configuration not stated) [TERAZOSIN],Not Active,Not Active,Not Active,Not Active,Not Active,
CN(C/C=C/C#CC(C)(C)C)Cc1cccc2ccccc12 [TERBINAFINE],Not Active,Not Active,Not Active,Not Active,Not Active,
CCCCNc1ccc(C(=O)OCCN(C)C)cc1 [TETRACAINE],Not Active,Not Active,Not Active,Not Active,Not Active,
Cn1c(=O)c2nc[nH]c2n(C)c1=O.O [THEOPHYLLINE],Not Active,Not Active,Not Active,Not Active,Not Active,
CS(=O)(=O)c1ccc([C@@H](O)[C@@H](CO)NC(=O)C(Cl)Cl)cc1 [THIAMPHENICOL],Not Active,Not Active,Not Active,Not Active,Not Active,
CCN(CC)CCNC(=O)c1cc(S(C)(=O)=O)ccc1OC [TIAPRIDE],Not Active,Not Active,Not Active,Not Active,Not Active,
Clc1ccccc1CN1CCc2sccc2C1 [TICLOPIDINE],Not Active,Not Active,Not Active,Not Active,Not Active,
NC1CCN(c2nc3c(cc2F)c(=O)c(C(=O)O)cn3-c2ccc(F)cc2F)C1 (configuration not stated) [TOSUFLOXACIN],Not Active,Not Active,Not Active,Not Active,Not Active,
O=C(Nc1ccc(Br)cc1)c1cc(Br)cc(Br)c1O [TRIBROMSALAN],Not Active,Not Active,,Not Active,Not Active,IC50 ([3]; read-out: IC50): 2.07 µM
CC(c1cc2ccccc2s1)N(O)C(N)=O (configuration not stated) [ZILEUTON],Not Active,Not Active,Not Active,Not Active,Not Active,
MANGANESE CHLORIDE ANHYDROUS,Not Active,Not Active,Not Active,Not Active,Not Active,Ki ([1]; cho-k1): Not Active; Ki [2]: Not Active; Ki ([3]; platelet): Not Active; Ki ([4]; cho-k1): Not Active; Ki ([5]; hek293): Not Active

# Source: ChEMBL document CHEMBL1909046, “DrugMatrix in vitro pharmacology data”
